The source made the active and inactive calls. The calls are words filed in the database; no cut-off is given here.
How the values were obtained:
[1] = target: Tyrosine-protein kinase ABL1 (Homo sapiens) (UniProt P00519); assay: Inhibition of ABL (unknown origin) at 1 uM
[2] = target: RAC-alpha serine/threonine-protein kinase (Homo sapiens) (UniProt P31749); assay: Inhibition of AKT1 (unknown origin) at 1 uM
[3] = target: T1, Aurora kinase A (Homo sapiens) (UniProt O14965); assay: Inhibition of AurA (unknown origin) at 1 uM
T1 sequence (whole entry): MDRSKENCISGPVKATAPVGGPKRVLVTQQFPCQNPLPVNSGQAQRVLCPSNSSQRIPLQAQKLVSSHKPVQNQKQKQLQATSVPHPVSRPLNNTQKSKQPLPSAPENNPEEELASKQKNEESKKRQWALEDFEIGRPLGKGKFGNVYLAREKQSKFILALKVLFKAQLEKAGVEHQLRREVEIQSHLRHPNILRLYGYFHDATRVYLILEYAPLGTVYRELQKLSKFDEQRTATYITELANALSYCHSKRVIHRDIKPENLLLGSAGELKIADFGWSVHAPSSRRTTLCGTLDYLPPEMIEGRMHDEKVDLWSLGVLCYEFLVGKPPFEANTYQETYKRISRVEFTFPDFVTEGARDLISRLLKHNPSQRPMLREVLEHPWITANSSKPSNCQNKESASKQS

[4] = target: Tyrosine-protein kinase receptor UFO (Homo sapiens) (UniProt P30530); assay: Inhibition of AXL (unknown origin) at 1 uM
[5] = target: CDK2/Cyclin A2 (Homo sapiens) (UniProt P24941+P20248); assay: Inhibition of CDK2/CyclinA (unknown origin) at 1 uM; type: protein-complex assay
[6] = target: Cyclin-dependent kinase 4/cyclin D1 (Homo sapiens) (UniProt P11802+P24385); assay: Inhibition of CDK4/cyclin D1 (unknown origin) at 1 uM; type: protein-complex assay
[7] = target: Mast/stem cell growth factor receptor Kit (Homo sapiens) (UniProt P10721); assay: Inhibition of cKIT (unknown origin) at 1 uM
[8] = target: Hepatocyte growth factor receptor (Homo sapiens) (UniProt P08581); assay: Inhibition of cMET (unknown origin) at 1 uM
[9] = target: Tyrosine-protein kinase CSK (Homo sapiens) (UniProt P41240); assay: Inhibition of CSK (unknown origin) at 1 uM
[10] = target: Epithelial discoidin domain-containing receptor 1 (Homo sapiens) (UniProt Q08345); assay: Inhibition of DDR1 (unknown origin) at 1 uM
[11] = target: Receptor tyrosine-protein kinase erbB-2 (Homo sapiens) (UniProt P04626); assay: Inhibition of ERBB2 (unknown origin) at 1 uM
[12] = target: Fibroblast growth factor receptor 3 (Homo sapiens) (UniProt P22607); assay: Inhibition of FGFR3 (unknown origin) at 1 uM
[13] = target: Receptor-type tyrosine-protein kinase FLT3 (Homo sapiens) (UniProt P36888); assay: Inhibition of FLT3 (unknown origin) at 1 uM
[14] = target: T2, Interleukin-1 receptor-associated kinase 4 (Homo sapiens) (UniProt Q9NWZ3); assay: Inhibition of IRAK4 (unknown origin) at 1 uM
T2 sequence (whole entry): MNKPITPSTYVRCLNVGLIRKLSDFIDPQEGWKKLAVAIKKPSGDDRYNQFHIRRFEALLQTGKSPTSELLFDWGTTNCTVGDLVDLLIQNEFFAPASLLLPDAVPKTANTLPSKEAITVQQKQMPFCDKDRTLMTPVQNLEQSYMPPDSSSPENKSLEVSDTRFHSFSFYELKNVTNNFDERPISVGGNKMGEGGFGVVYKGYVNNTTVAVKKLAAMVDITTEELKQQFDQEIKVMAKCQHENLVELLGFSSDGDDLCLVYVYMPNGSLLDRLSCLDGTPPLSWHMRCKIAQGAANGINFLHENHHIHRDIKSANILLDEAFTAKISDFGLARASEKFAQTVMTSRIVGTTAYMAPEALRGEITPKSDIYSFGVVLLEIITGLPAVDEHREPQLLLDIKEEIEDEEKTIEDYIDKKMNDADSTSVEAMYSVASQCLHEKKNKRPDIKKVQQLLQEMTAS

[15] = target: Mitogen-activated protein kinase 3 (Homo sapiens) (UniProt P27361); assay: Inhibition of ERK1 (unknown origin) at 1 uM
[16] = target: Serine/threonine-protein kinase mTOR (Homo sapiens) (UniProt P42345); assay: Inhibition of mTOR (unknown origin) at 1 uM
[17] = target: Serine/threonine-protein kinase PAK 1 (Homo sapiens) (UniProt Q13153); assay: Inhibition of PAK1 (unknown origin) at 1 uM
[18] = target: Serine/threonine-protein kinase PAK 4 (Homo sapiens) (UniProt O96013); assay: Inhibition of PAK4 (unknown origin) at 1 uM
[19] = target: Serine/threonine-protein kinase pim-1 (Homo sapiens) (UniProt P11309); assay: Inhibition of PIM1 (unknown origin) at 1 uM
[20] = target: Serine/threonine-protein kinase PLK3 (Homo sapiens) (UniProt Q9H4B4); assay: Inhibition of PLK3 (unknown origin) at 1 uM
[21] = target: Rho-associated protein kinase 2 (Homo sapiens) (UniProt O75116); assay: Inhibition of ROCK2 (unknown origin) at 1 uM
[22] = target: Angiopoietin-1 receptor (Homo sapiens) (UniProt Q02763); assay: Inhibition of TIE2 (unknown origin) at 1 uM
[23] = target: Vascular endothelial growth factor receptor 2 (Homo sapiens) (UniProt P35968); assay: Inhibition of VEGFR2 (unknown origin) at 1 uM
[24] = target: Death-associated protein kinase 3 (Homo sapiens) (UniProt O43293); assay: Inhibition of DAPK3 (unknown origin) at 1 uM
[25] = target: Mitogen-activated protein kinase 8 (Rattus norvegicus) (UniProt P49185); assay: Inhibition of albumin-conjugated palmitate-induced JNK1/2 phosphorylation assessed as JNK phosphorylation level in rat RINm5F cells incubated for 8 hrs; type: cell-based
[26] = target: Mitogen-activated protein kinase 8 (Rattus norvegicus) (UniProt P49185); assay: Inhibition of JNK1 phosphorylation in rat RINm5F cells assessed as suppression of albumin-conjugated palmitate-induced IRS-1 Ser307 phosphorylation incubated for 8 hrs; type: cell-based; set-up: concentration or dose not given beside the values; conditions: concentration not given here

Mitogen-activated protein kinase 8 (Rattus norvegicus), sequence (P49185 whole entry): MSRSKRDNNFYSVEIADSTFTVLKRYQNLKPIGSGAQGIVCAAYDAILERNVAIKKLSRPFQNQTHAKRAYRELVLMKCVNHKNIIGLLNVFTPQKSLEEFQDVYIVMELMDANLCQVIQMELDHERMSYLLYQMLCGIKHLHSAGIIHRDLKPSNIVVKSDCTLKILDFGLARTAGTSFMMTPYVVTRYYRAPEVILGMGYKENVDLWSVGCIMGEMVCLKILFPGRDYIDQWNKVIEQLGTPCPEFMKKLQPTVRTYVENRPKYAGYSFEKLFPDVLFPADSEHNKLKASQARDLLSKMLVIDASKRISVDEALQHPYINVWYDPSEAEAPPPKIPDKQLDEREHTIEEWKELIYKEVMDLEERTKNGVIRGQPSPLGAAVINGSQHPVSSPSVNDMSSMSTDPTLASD
Mast/stem cell growth factor receptor Kit (Homo sapiens), sequence (P10721 whole entry): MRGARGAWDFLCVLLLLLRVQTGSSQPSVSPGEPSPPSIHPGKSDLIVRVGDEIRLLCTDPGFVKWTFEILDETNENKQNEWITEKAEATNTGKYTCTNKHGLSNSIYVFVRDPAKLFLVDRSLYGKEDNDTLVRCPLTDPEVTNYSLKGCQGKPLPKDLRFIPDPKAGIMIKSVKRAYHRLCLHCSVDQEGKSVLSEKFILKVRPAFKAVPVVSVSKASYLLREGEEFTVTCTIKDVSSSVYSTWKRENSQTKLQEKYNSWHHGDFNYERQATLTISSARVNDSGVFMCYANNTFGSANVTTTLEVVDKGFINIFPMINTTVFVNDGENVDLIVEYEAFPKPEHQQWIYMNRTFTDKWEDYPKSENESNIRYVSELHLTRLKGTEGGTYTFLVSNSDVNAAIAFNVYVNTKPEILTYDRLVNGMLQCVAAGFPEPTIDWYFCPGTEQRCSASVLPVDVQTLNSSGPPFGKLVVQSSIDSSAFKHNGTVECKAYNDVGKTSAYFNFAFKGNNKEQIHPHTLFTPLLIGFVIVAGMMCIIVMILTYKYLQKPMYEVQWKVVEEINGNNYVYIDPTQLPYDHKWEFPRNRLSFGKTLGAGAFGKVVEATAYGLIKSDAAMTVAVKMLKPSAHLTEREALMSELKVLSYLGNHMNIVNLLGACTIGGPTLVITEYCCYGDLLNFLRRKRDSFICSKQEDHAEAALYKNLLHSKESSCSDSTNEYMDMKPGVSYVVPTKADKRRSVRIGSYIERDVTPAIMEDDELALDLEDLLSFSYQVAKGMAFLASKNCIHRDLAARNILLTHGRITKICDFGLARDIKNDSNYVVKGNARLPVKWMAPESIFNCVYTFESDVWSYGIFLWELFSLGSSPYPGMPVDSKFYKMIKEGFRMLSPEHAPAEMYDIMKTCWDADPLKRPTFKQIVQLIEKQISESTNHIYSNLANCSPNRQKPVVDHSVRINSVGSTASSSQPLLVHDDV
RAC-alpha serine/threonine-protein kinase (Homo sapiens), sequence (P31749 whole entry): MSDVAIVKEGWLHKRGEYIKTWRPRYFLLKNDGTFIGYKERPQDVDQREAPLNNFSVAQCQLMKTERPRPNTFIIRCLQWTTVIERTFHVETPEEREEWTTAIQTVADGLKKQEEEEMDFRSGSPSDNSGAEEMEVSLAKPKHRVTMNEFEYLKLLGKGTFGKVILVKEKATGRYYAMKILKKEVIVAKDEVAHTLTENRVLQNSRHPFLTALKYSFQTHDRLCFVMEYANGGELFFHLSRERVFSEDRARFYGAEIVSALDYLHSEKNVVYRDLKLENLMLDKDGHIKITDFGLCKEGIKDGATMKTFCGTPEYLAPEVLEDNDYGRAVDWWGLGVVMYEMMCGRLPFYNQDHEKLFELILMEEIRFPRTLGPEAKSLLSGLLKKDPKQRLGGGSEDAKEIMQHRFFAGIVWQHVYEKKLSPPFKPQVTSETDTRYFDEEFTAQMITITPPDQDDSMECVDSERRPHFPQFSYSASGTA
Tyrosine-protein kinase receptor UFO (Homo sapiens), sequence (P30530 whole entry): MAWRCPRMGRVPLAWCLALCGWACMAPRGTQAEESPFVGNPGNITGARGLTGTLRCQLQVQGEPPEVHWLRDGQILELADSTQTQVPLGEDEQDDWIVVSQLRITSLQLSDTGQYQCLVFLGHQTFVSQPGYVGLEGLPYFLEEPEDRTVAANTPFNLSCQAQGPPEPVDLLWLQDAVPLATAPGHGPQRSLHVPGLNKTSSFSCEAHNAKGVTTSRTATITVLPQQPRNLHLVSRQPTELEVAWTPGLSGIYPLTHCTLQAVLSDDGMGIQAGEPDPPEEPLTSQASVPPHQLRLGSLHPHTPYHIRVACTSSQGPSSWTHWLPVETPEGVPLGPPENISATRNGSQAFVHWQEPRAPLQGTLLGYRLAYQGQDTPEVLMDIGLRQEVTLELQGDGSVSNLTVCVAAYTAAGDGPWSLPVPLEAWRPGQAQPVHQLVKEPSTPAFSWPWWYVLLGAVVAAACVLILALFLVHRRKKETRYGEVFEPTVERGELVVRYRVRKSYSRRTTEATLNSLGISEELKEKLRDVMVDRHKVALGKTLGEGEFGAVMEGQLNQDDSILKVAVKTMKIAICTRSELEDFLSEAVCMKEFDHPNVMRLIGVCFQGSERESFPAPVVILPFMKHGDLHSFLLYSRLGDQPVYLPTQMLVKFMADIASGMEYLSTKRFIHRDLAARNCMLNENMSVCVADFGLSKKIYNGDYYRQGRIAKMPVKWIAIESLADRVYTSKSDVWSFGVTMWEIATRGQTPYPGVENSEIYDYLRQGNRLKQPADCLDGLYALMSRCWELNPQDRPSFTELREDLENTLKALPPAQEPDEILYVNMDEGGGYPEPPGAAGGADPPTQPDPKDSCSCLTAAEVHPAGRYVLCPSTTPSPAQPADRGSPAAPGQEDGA
Death-associated protein kinase 3 (Homo sapiens), sequence (O43293 whole entry, looked up): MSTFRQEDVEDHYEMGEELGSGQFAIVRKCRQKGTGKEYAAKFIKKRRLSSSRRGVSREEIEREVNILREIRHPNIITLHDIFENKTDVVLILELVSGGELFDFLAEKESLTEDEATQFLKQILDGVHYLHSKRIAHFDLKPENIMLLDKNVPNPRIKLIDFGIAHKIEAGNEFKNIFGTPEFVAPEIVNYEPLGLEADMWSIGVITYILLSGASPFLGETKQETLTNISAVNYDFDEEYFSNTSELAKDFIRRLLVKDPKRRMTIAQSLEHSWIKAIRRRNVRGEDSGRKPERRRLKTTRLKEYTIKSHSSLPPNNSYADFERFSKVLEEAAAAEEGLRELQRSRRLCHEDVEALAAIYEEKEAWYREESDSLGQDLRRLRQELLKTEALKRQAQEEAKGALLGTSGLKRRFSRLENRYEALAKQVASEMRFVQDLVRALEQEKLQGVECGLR
Mitogen-activated protein kinase 3 (Homo sapiens), sequence (P27361 whole entry): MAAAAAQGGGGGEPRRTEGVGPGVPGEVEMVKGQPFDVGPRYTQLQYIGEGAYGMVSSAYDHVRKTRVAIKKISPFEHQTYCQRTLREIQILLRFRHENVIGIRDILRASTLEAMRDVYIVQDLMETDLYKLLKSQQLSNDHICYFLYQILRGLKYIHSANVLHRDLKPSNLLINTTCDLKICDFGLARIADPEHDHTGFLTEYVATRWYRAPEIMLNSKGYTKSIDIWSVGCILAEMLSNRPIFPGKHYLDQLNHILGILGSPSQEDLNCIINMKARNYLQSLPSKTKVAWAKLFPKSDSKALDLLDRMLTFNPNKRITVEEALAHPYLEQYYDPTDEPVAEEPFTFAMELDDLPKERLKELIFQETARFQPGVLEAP
Epithelial discoidin domain-containing receptor 1 (Homo sapiens), sequence (Q08345 whole entry, the tested form may be a part): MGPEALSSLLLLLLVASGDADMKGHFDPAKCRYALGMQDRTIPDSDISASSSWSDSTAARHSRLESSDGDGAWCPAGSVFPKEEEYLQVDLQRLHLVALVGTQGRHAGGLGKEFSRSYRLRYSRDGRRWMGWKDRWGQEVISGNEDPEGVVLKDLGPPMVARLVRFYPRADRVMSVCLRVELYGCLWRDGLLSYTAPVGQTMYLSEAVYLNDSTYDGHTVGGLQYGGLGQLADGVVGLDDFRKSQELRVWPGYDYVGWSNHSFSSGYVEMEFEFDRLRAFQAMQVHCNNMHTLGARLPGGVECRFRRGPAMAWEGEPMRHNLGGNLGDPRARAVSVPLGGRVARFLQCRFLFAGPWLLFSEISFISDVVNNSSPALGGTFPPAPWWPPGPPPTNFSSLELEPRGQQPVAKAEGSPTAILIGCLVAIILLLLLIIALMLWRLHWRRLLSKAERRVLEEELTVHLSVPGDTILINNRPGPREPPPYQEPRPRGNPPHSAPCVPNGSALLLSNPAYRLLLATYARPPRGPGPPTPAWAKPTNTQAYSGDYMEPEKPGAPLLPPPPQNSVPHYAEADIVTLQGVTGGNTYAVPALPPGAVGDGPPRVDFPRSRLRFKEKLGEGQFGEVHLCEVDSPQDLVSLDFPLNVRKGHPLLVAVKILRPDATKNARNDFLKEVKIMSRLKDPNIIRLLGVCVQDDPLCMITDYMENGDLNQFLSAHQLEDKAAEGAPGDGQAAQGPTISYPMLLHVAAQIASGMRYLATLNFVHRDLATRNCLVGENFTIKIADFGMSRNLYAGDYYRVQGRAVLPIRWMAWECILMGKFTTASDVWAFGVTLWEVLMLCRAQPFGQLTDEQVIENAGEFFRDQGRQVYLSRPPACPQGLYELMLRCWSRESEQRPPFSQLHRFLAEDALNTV
Serine/threonine-protein kinase PAK 1 (Homo sapiens), sequence (Q13153 whole entry): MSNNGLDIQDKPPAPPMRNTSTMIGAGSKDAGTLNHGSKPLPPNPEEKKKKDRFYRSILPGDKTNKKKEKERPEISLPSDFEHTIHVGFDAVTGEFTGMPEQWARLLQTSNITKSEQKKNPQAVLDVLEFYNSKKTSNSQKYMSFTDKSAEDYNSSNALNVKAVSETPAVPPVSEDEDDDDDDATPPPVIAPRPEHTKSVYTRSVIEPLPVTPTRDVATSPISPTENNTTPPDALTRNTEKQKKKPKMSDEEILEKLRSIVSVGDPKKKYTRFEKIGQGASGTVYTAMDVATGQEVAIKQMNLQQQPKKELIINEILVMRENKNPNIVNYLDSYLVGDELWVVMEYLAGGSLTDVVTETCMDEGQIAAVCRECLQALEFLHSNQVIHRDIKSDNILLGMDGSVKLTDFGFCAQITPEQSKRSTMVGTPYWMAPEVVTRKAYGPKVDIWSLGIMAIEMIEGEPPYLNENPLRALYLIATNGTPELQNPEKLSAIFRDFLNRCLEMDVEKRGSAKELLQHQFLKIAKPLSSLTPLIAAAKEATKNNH

inhibition [1]: 17% | inhibition [2]: 8% | inhibition [3]: 1% | inhibition [4]: 16% | inhibition [5]: 10% | inhibition [6]: 27% | inhibition [7]: 17% | inhibition [8]: 22% | inhibition [9]: 22% | inhibition [10]: 85% | inhibition [11]: 4% | inhibition [12]: 5% | inhibition [13]: 8% | inhibition [14]: 8% | inhibition [15]: 16% | inhibition [16]: 9% | inhibition [17]: 16% | inhibition [18]: 32% | inhibition [19]: 6% | inhibition [20]: 4% | inhibition [21]: 13% | inhibition [22]: 10% | inhibition [23]: 9% | inhibition [25]: inactive | inhibition [26]: 96%
SMILES: Cn1c(=O)c(Oc2ccc(F)cc2F)cc2cnc(NC3CCN(S(N)(=O)=O)CC3)nc21
inhibition [24]: 0%

— ChEMBL document CHEMBL3745672, “Novel compounds reducing IRS-1 serine phosphorylation for treatment of diabetes” (Bioorg Med Chem Lett, 2016)
